Laboratory results reported in patent US20030199567A1, “Combinations of an alpha-2-delta ligand with a selective inhibitor of cyclooxygenase-2” (priority 2002, published 2003).

Experiments:
[1] = system: Experimental Osteoarthritis in Rabbit; assay: Induction of Experimental Osteoarthritis in Rabbit (EOA in Rabbit); type: in vivo; settings: conclusion drawn from the expected study
Procedure: Induction of Experimental Osteoarthritis in Rabbit (“EOA in Rabbit”)
Normal rabbits are anaesthetized and anteromedial incisions of the right knees performed. The anterior cruciate ligaments are visualized and sectioned. The wounds are closed and the animals are housed in individual cages, exercised, and fed ad libitum. Rabbits are given either vehicle (water), a combination comprising valdecoxib and gabapentin, or a combination comprising valdecoxib and 3-(1-aminomethyl-cyclohexylmethyl)-4h-[1,2,4]oxadiazol-5-one hydrochloride (10 rabbits per group). […]
The cartilage changes on the femoral condyles and tibial plateaus are graded separately under a dissecting microscope (Stereozoom, Bausch & Lomb, Rochester, N.Y.). […] The surface area changes are measured and expressed in mm^2. […]
Representative specimens of synovial membrane from the medial and lateral knee compartments are dissected from underlying tissues. […] The average is calculated and considered as a unit for the whole knee. […]
Mean values and SEM are calculated and statistical analysis is done using the Mann-Whitney U-test.

[2] = cited from earlier work

Compound	treatment of cartilage damage by the Alpha-2-delta ligand [1]	tolerability ([2]; combined analysis of various clinical studies)	overall upper gastrointestinal safety profile (ulcers, perforations, obstructions and GI bleeds) ([2]; versus conventional NSAIDs such as ibuprofen, diclofenac and naproxen)
NCC1(CC(=O)O)CCCCC1 [gabapentin]	effective		
Cc1onc(-c2ccccc2)c1-c1ccc(S(N)(=O)=O)cc1 [valdecoxib, 4-(5-methyl-3-phenyl-4-isoxazolyl)-benzenesulfonamide]		well tolerated	significantly better
Cl.NCC1(Cc2noc(=O)[nH]2)CCCCC1 [3-(1-aminomethyl-cyclohexylmethyl)-4H-[1,2,4]oxadiazol-5-one hydrochloride]	effective		
